# Experimental data taken from patent US8431597B2, “Benzimidazole derivatives” (Pfizer Inc., priority 2007, dated 2013).
# Where a name gives a salt, the structure may show the parent alone.
# Target: T1, Smoothened (SMO) (Mus musculus, UniProt P56726)
# T1 construct: C3H10T1/2 cells (ATCC #CCL-226) were split and seeded; endogenous in cells; host or cells: C3H10T1/2 (ATCC #CCL-226)
# Assay: Smoothened (SMO)/Sonic Hedgehog (SHh) Transient Transcriptional Activation Assay (Gli-luciferase reporter in C3H10T1/2 cells)
# Type: cell-based, murine
# Settings: C3H 10T1/2, 2 μM compound; transfected C3H10T1/2 cells, recombinant human SHh 250 ng/mL, 20 hours, luciferase readout; read-out: SMO CELL % INHIBITION @ 2 μM
# Outline: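 C3H10T1/2 cells transiently transfected with a murine Gli-responsive firefly luciferase reporter plus pEGFP were serum-starved 20 h in 0.5% calf serum. Compound (2 μM to 2 nM final) was added with recombinant human SHh at 250 ng/mL final for 20 h at 37 °C. Read-out was Dual-Glo luminescence.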
# T1 sequence (P56726 33-793): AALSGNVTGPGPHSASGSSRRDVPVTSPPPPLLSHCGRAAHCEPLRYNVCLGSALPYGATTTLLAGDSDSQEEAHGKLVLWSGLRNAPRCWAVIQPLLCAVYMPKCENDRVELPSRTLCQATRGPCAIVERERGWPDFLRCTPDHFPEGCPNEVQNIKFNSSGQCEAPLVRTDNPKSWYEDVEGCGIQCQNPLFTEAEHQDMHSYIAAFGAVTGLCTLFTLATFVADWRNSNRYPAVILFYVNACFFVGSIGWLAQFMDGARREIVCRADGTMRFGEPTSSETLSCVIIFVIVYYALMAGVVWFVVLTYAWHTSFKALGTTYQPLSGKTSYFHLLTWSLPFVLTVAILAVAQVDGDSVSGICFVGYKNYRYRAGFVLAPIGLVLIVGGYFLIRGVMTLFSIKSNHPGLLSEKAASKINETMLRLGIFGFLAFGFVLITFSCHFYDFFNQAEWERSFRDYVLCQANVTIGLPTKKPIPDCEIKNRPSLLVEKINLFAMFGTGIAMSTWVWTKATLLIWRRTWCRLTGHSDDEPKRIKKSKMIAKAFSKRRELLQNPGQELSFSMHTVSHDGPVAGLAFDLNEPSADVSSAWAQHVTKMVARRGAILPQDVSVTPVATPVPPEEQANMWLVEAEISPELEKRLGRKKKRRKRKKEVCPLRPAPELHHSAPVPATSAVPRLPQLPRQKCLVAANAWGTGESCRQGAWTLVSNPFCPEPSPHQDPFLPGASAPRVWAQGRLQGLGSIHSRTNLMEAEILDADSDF
row,SMILES,inhibition at 2 µM
1,"CC(C)N1C[C@@H](NC(=O)Nc2ccc(Cl)c(C(F)(F)F)c2)C[C@H]1c1nc2ccccc2[nH]1 [Example 93, 1-[(3S,5S)-5-(1H-benzimidazol-2-yl)-1-isopropyl-pyrrolidin-3-yl]-3-[4-chloro-3-(trifluoromethyl)phenyl]urea]",85.2%
2,"CN1CC[C@H](NC(=O)c2ccc3c(c2)OCCO3)C[C@@H]1c1nc2ccccc2[nH]1 [Example 94, N-[(2R,4S)-2-(1H-benzimidazol-2-yl)-1-methylpiperidin-4-yl]-2,3-dihydro-1,4-benzodioxine-6-carboxamide hydrochloride]",79.7%
3,"CN1CC[C@@H](NC(=O)N2CCOCC2)C[C@@H]1c1nc2ccccc2[nH]1 [Example 95, N-[(2R,4R)-2-(1H-benzimidazol-2-yl)-1-methylpiperidin-4-yl]morpholine-4-carboxamide hydrochloride]",78.7%
4,"COc1cncc(NC(=O)N[C@@H]2CCN(C)[C@@H](c3nc4ccccc4[nH]3)C2)c1 [Example 96, 1-[(2R,4R)-2-(1H-benzimidazol-2-yl)-1-methylpiperidin-4-yl]-3-(5-methoxypyridin-3-yl)urea hydrochloride]",76.3%
5,"N#Cc1ccc(NC(=O)N[C@@H]2CCN(CCc3ccccc3)[C@@H](c3nc4ccccc4[nH]3)C2)cc1 [Example 98, 1-[(2R,4R)-2-(1H-benzimidazol-2-yl)-1-(2-phenyl-ethyl)piperidin-4-yl)-3-(4-cyanophenyl)urea]",74.5%
6,"CN1CC[C@@H](NC(=O)Nc2ccc(C(F)(F)F)cn2)C[C@@H]1c1nc2ccccc2[nH]1 [Example 101, 1-[(2R,4R)-2-(1H-benzimidazol-2-yl)-1-methylpiperidin-4-yl]-3-[5-(trifluoromethyl)pyridin-2-yl]urea hydrochloride]",62.5%
7,"Cc1ccc2nccc(C(=O)N[C@@H]3CCN(C)[C@@H](c4nc5ccccc5[nH]4)C3)c2c1 [Example 103, N-[(2R,4R)-2-(1H-benzimidazol-2-yl)-1-methylpiperidin-4-yl]-6-methylquinoline-4-carboxamide trifluoroacetate]",100%
8,"CN1CC[C@@H](NC(=O)Cc2cc3ccccc3o2)C[C@@H]1c1nc2ccccc2[nH]1 [Example 104, N-[(2R,4R)-2-(1H-benzimidazol-2-yl)-1-methylpiperidin-4-yl]-2-(1-benzofuran-2-yl)acetamide trifluoroacetate]",99.5%
9,"CN1CC[C@@H](NC(=O)[C@@H]2COc3ccccc3O2)C[C@@H]1c1nc2ccccc2[nH]1 [Example 105, (2S)-N-[(2R,4R)-2-(1H-benzimidazol-2-yl)-1-methylpiperidin-4-yl]-2,3-dihydro-1,4-benzodioxine-2-carboxamide trifluoroacetate]",97.8%

# Continued, values first:
row,inhibition at 2 µM,SMILES
1,75.4%,"CN1CC[C@@H](NC(=O)c2cnc3c(c2)OCCO3)C[C@@H]1c1nc2ccccc2[nH]1 [Example 97, N-[(2R,4R)-2-(1H-benzimidazol-2-yl)-1-methylpiperidin-4-yl]-2,3-dihydro[1,4]dioxino[2,3-b]pyridine-7-carboxamide hydrochloride]"
2,72%,"O=C(N[C@@H]1CCN[C@@H](c2nc3ccccc3[nH]2)C1)c1ccc2c(c1)OCCO2 [Example 99, N-[(2R,4R)-2-(1H-benzimidazol-2-yl)piperidin-4-yl]-2,3-dihydro-1,4-benzodioxine-6-carboxamide trifluoroacetate]"
3,63.7%,"CN1CC[C@@H](NC(=O)c2ccc3c(c2)NC(=O)CO3)C[C@@H]1c1nc2ccccc2[nH]1 [Example 100, N-[(2R,4R)-2-(1H-benzimidazol-2-yl)-1-methylpiperidin-4-yl]-3-oxo-3,4-dihydro-2H-1,4-benzoxazine-6-carboxamide hydrochloride]"
4,102%,"COc1cc(C(=O)N[C@@H]2CCN(C)[C@@H](c3nc4ccccc4[nH]3)C2)ccc1F [Example 102, N-[(2R,4R)-2-(1H-benzimidazol-2-yl)-1-methylpiperidin-4-yl]-4-fluoro-3-methoxybenzamide trifluoroacetate]"
